Assay results published in patent publication US9718790B2, “Triazine derivative and pharmaceutical composition having an analgesic activity comprising the same” (SHIONOGI & CO., LTD., priority 2010, dated 2017).

The compounds below were run against human P2X3 receptor (Homo sapiens (Human), UniProt P56373) (assay: Evaluation of human P2X3 receptor inhibitory activity (Fluo-3 calcium fluorescence, FDSS 3000, ATP stimulation)). Conditions: C6BU-1 cells stably expressing human P2X3 receptor.
Format: cell-based
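Note: stimulus was 50 nM ATP with fluorescence followed for 3 min, and the response per well was peak post-ATP fluorescence divided by the reading at measurement start.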

Chain of human P2X3 receptor (P56373 whole entry): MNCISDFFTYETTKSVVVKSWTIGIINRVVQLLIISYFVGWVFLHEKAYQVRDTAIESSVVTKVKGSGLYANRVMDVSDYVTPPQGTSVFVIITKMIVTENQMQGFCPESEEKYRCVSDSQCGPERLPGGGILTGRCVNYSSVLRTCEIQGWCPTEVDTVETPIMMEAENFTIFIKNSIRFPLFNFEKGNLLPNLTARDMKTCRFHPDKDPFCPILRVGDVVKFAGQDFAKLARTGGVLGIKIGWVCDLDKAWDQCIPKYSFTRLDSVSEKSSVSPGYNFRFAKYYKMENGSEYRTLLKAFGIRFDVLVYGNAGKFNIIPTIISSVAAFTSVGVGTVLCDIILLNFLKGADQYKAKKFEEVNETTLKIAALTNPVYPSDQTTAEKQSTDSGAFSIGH

| Structure (SMILES) | IC50 [nM] |
| --- | --- |
| Cc1ccc(Cn2c(=O)n([C@H](C)[C@H](C)C(=O)O)c(=O)[nH]/c2=N\c2ccc(OC(C)C)c(F)c2)cc1 [Compound I-1338] | 36 |
| Cc1ccc(Cn2c(=O)n(CCCC(=O)O)c(=O)[nH]/c2=N\c2ccc(Oc3ccc(C)nc3)cc2)cc1 [Compound I-1395] | 23 |
| CCOC(=O)c1coc(Oc2ccc(/N=c3\[nH]c(=O)n(CC)c(=O)n3Cc3ccc(Cl)cc3)cc2)n1 [Compound I-2188] | 9 |
| CCCCOc1ccc(/N=c2\[nH]c(=O)n(C[C@H](C)C(=O)OC)c(=O)n2Cc2ccc(C)cc2)cc1 [Compound I-0816] | 37 |
| Cc1ccc(Cn2c(=O)n(CC(C)(C)C(=O)O)c(=O)[nH]/c2=N\c2ccc(OCC3CC3)cc2)cc1 [Compound I-1268] | 52 |
| Cc1cc(/N=c2\[nH]c(=O)n(C[C@H](C)C(=O)O)c(=O)n2Cc2ccc(F)cc2)ccc1OC(C)C [Compound I-0629] | 127 |
| COc1cc(/N=c2\[nH]c(=O)n(CC3COC(C)(C)OC3)c(=O)n2Cc2ccc(Cl)cc2)ccc1OC(C)C [Compound I-1984] | 9 |
| CC(C)Oc1ccc(/N=c2\[nH]c(=O)n(CC(=O)N3CCN(C(=O)OC(C)(C)C)CC3)c(=O)n2Cc2ccc(Cl)cc2)cc1Cl [Compound I-0740] | 221 |
| Cn1c(=O)[nH]/c(=N\c2ccc(Oc3ccc(C(=O)O)cc3)cc2)n(Cc2ccc(Cl)cc2)c1=O [Compound I-2063] | 120 |
| COC(=O)[C@@H](C)Cn1c(=O)[nH]/c(=N\c2ccc(OC3CCC3)cc2)n(Cc2ccc(Cl)cc2)c1=O [Compound I-1281] | 6 |
| CC(C)n1c(=O)n(Cc2ccc(Cl)cc2)c(=O)n(Cc2ccc(C(F)(F)F)cc2)c1=O [Compound I-1289, 1-(4-chlorobenzyl)-3-isopropyl-5-(4-trifluoromethylbenzyl)-1,3,5-triazinane-2,4,6-trione] | 510 |
| CC(C)Oc1ccc(/N=c2\[nH]c(=O)n(Cc3cc[nH]c(=O)c3)c(=O)n2Cc2ccc(Cl)cc2)cc1F [Compound I-0650] | 20 |
| Cc1cc(/N=c2\[nH]c(=O)n(CC[C@H](NC(=O)OC(C)(C)C)C(=O)O)c(=O)n2Cc2ccc(Cl)cc2)ccc1OC(C)C [Compound I-0732, (S)-1-(4-chlorobenzyl)-3-(3-t-butoxycarbonylamino-3-hydroxycarbonylpropyl)-6-(3-mehyl-4-isopropoxyphenylimino)-1,3,5-triazinane-2,4-dion] | 41 |
| CCOC(=O)CCn1c(=O)[nH]/c(=N\c2ccc(Oc3cccnc3)cc2)n(Cc2ccc(Cl)cc2)c1=O [Compound I-1204] | 5 |
| COc1ccc(/N=c2\[nH]c(=O)n(C[C@H](C)C(=O)O)c(=O)n2Cc2ccc(Cl)cc2)cc1C(F)(F)F [Compound I-0797] | 701 |
| CCn1c(=O)[nH]/c(=N\c2ccc(Oc3ccnc(C(N)=O)c3)cc2)n(CC2CCC3(CC2)CC3)c1=O [Compound I-2176] | 4 |
| CCc1cc2cc(/N=c3\[nH]c(=O)n(C[C@H](C)C(=O)OC)c(=O)n3Cc3ccc(Cl)cc3)ccc2s1 [Compound I-1947] | 353 |
| COC(=O)[C@@H](C)[C@@H](C)n1c(=O)[nH]/c(=N\c2ccc(N3CCCCC3)cc2)n(Cc2ccc(Cl)cc2)c1=O [Compound I-1454] | 23 |
| Cc1cc(Oc2ccc(/N=c3\[nH]c(=O)[nH]c(=O)n3Cc3ccc(Cl)cc3)cc2)ccn1 [Compound I-1955] | 97 |
| CC[C@@H](C)Oc1ccc(/N=c2\[nH]c(=O)n(C[C@H](C)C(=O)OC)c(=O)n2Cc2ccc(Cl)cc2)cc1 [Compound I-0727] | 12 |
| C=Cc1cc(/N=c2\[nH]c(=O)n(C[C@H](C)C(=O)OC)c(=O)n2Cc2ccc(C)cc2)ccc1OCC [Compound I-1191] | 22 |
| CC(C)Cc1ccc(/N=c2\[nH]c(=O)n([C@@H](C)[C@@H](C)C(=O)O)c(=O)n2Cc2ccc(Cl)cc2)cc1Cl [Compound I-1442] | 8 |
| C=C(Cn1c(=O)[nH]/c(=N\c2ccc(OC(C)C)c(C)c2)n(Cc2ccc(Cl)cc2)c1=O)C(=O)OCC [Compound I-0779] | 16 |
| Cc1ccc(Cn2c(=O)n(CCC(=O)O)c(=O)[nH]/c2=N\c2ccc(Oc3ccncc3)cc2)cc1 [Compound I-1228] | 9 |
| C[C@@H](Cn1c(=O)[nH]/c(=N\c2ccc(OC3CCC3)cc2)n(Cc2ccc(Cl)cc2)c1=O)C(=O)O [Compound I-1284] | 15 |
| COc1cc(/N=c2\[nH]c(=O)n(CCO)c(=O)n2Cc2ccc(Cl)cc2)ccc1OC(C)C [Compound I-2006] | 36 |

Same assay, conditions: C6BU-1 cells stably expressing human P2X3 receptor, Fluo-3 fluorescence, FDSS 3000

| Structure (SMILES) | IC50 [nM] |
| --- | --- |
| CCc1ccc(Cn2c(=O)n(C[C@H](C)C(=O)O)c(=O)[nH]/c2=N\c2ccc(OC(C)C)cc2)cc1 [Compound I-1140] | 44 |
| C[C@@H](Cn1c(=O)[nH]/c(=N\c2ccc(OC(F)F)cc2)n(Cc2ccc(Cl)cc2)c1=O)C(=O)O [Compound I-1162] | 179 |
| CC(C)Oc1ccc(Nc2nc(=O)n(C(C)C)c(=O)n2Cc2ccc(F)cc2)cc1C#N [Compound I-0227] | 910 |
| CC(=O)NCCn1c(=O)[nH]/c(=N\c2ccc(O[C@H](C)C(F)(F)F)cc2)n(Cc2ccc(Cl)cc2)c1=O [Compound I-1617] | 27 |
| COC(=O)[C@@H](C)Cn1c(=O)nc(Cc2ccc(OC)c(F)c2)n(Cc2ccc(Cl)cc2)c1=O [Compound I-1869] | 328 |
| CCc1nc2ccc(/N=c3\[nH]c(=O)n(CCC(=O)NCCO)c(=O)n3Cc3ccc(Cl)cc3)cc2s1 [Compound I-1739] | 7 |
| C[C@@H](C(=O)O)[C@H](C)n1c(=O)[nH]/c(=N\c2ccc3oc(-c4ccncc4)nc3c2)n(Cc2ccc(Cl)cc2)c1=O [Compound I-1816] | 300 |
| CCc1nc2ccc(/N=c3\[nH]c(=O)n(CC(C)(C)C(=O)O)c(=O)n3Cc3ccc(C)cc3)cc2s1 [Compound I-1580] | 6 |
| CCc1oc2ccc(/N=c3\[nH]c(=O)n(CCCC(N)=O)c(=O)n3Cc3ccc(Cl)cc3)cc2c1C [Compound I-1710] | 6 |
| CCc1oc2ccc(/N=c3\[nH]c(=O)n(C[C@@H](C)NC(C)=O)c(=O)n3Cc3ccc(Cl)cc3)cc2c1C [Compound I-1673] | 14 |
| C[C@@H](Oc1ccc(/N=c2\[nH]c(=O)n(CCCO)c(=O)n2Cc2ccc(Cl)cc2)cc1)C(F)(F)F [Compound I-1620] | 14 |
| C[C@H](Cn1c(=O)[nH]/c(=N\c2ccc(OCC3CC3)cc2)n(Cc2ccc(Cl)cc2)c1=O)C(=O)O [Compound I-1037] | 93 |
| COC(=O)[C@@H](C)Cn1c(=O)[nH]/c(=N\c2ccc(N3CCCCC3)cc2)n(Cc2ccc(C)cc2)c1=O [Compound I-1085] | 34 |
| CC(C)Cc1ccc(/N=c2\[nH]c(=O)n(CC(C)(CO)CO)c(=O)n2Cc2ccc(Cl)cc2)cc1Cl [Compound I-1637] | 12 |
| CCc1oc2ccc(/N=c3\[nH]c(=O)n(C[C@H](CC)NC(C)=O)c(=O)n3Cc3ccc(Cl)cc3)cc2c1C [Compound I-1708] | 17 |
| CCc1cc2cc(/N=c3\[nH]c(=O)n(C[C@H](C)C(=O)OC)c(=O)n3Cc3ccc(Cl)cc3)ccc2s1 [Compound I-1947] | 677 |
| CCCCOc1ccc(/N=c2\[nH]c(=O)n(CC3(C(=O)OCC)CC3)c(=O)n2Cc2ccc(Cl)cc2)cc1 [Compound I-1005] | 31 |
| COC(=O)[C@@H](C)Cn1c(=O)[nH]/c(=N\c2ccc(OCC(C)(C)C)cc2)n(Cc2ccc(C)cc2)c1=O [Compound I-1050] | 389 |
| COC(=O)[C@@H](C)Cn1c(=O)[nH]/c(=N\c2ccc3c(c2)CCCO3)n(Cc2ccc(Cl)cc2)c1=O [Compound I-1102] | 148 |
| CCc1nc2ccc(/N=c3\[nH]c(=O)n(CC(C)(C)C(=O)OC)c(=O)n3Cc3ccc(C)cc3)cc2s1 [Compound I-1573] | 4 |
| CCOC(=O)CCn1c(=O)[nH]/c(=N\c2ccc(O[C@H](C)CC)c(C)c2)n(Cc2ccc(C)cc2)c1=O [Compound I-1019] | 7 |

Same assay, conditions: human P2X3 receptor, Test Example 1

| Structure (SMILES) | IC50 [nM] |
| --- | --- |
| Cn1c(=O)[nH]/c(=N\c2ccc(Oc3nccc(C(=O)O)n3)cc2)n(Cc2ccc(Cl)cc2)c1=O [Compound I-2405] | 62 |
| Cc1nsc(Oc2ccc(/N=c3\[nH]c(=O)n(CC(CO)CO)c(=O)n3Cc3ccc(Cl)cc3)cc2)n1 [Compound I-2520] | 2 |
| CC1(Cn2c(=O)[nH]/c(=N\c3ccc(Oc4ccon4)cc3)n(Cc3ccc(Cl)cc3)c2=O)COC(C)(C)OC1 [Compound I-2630] | 3 |
| CNC(=O)Nc1cc(Oc2ccc(/N=c3\[nH]c(=O)n(C)c(=O)n3Cc3ccc(Cl)cc3)cc2)ccn1 [Compound I-2656] | 6 |
| CCn1c(=O)[nH]/c(=N\c2ccc(Oc3cccnn3)cc2)n(Cc2ccc(Cl)cc2)c1=O [Compound I-2611] | 14 |
| NC(=O)Cn1c(=O)[nH]/c(=N\c2ccc(Oc3ccon3)cc2)n(Cc2ccc(Cl)cc2)c1=O [Compound I-2512] | 11 |
| CCn1c(=O)[nH]/c(=N\c2ccc(Oc3cccc(Cl)n3)cc2)n(Cc2ccc(Cl)cc2)c1=O [Compound I-2441] | 10 |
| CCc1ccc(Cn2c(=O)n(C[C@H](C)C(=O)OC)c(=O)[nH]/c2=N\c2ccc(OC(C)C)c(C)c2)cc1 [Compound I-0894, (S)-1-(4-ethylbenzyl)-6-(3-mehyl-4-isopropoxyphenylimino)-3-(2-methoxycarbonylpropyl)-1,3,5-triazinane-2,4-dion] | 28 |
| Cn1c(=O)[nH]/c(=N\c2ccc(Oc3ccnc(C(N)=O)c3)cc2)n(Cc2ccc(Cl)cc2)c1=O [Compound I-2378] | 6 |
| O=C(Cn1c(=O)[nH]/c(=N\c2ccc(Oc3cnsn3)cc2)n(Cc2ccc(Cl)cc2)c1=O)NCCO [Compound I-2677] | 7 |
| CCn1c(=O)[nH]/c(=N\c2cccc(Oc3cccc(C(=O)O)n3)c2)n(Cc2ccc(Cl)cc2)c1=O [Compound I-2592] | 350 |
| O=C(Cn1c(=O)[nH]/c(=N\c2ccc(Oc3ccon3)cc2)n(Cc2ccc(Cl)cc2)c1=O)NCC(F)(F)F [Compound I-2681] | 4 |
| O=C(Cn1c(=O)[nH]/c(=N\c2ccc(Oc3ncns3)cc2)n(Cc2ccc(Cl)cc2)c1=O)NCCO [Compound I-2674] | 5 |
| COC(=O)[C@@H](C)Cn1c(=O)[nH]/c(=N\c2ccc(C(C)C)c(Cl)c2)n(Cc2ccc(C)cc2)c1=O [Compound I-1493] | 444 |
| C=COc1ccc(/N=c2\[nH]c(=O)n(C[C@H](C)C(=O)O)c(=O)n2Cc2ccc(C)cc2)cc1Cl [Compound I-1549] | 8 |
